Results published in US3966739A, “Pyrrole-carboxylic acids lumilysergol esters” (Societa' Farmaceutici Italia S.p.A., priority 1971, dated 1976).
≈ marks a conversion by molar mass, not a printed value. Where a name gives a salt, the structure may show the parent alone. Read-outs that look alike come from different tables or passages of the source.

Tests used:
[1] = system: spasmogen action of adrenaline on isolated seminal small bladder; assay: adrenolytic activity on isolated seminal small bladder of guinea-pig (inhibition of spasmogen action of adrenaline); format: cell-based; conditions: Cavia porcellus; isolated seminal small bladder of guinea-pig suspended in physiologic solution; read-out: concentrations inhibiting 50% of the spasmogen action of adrenaline (IC50)
Text: The adrenolytic activity of the compounds of the invention has been tested by employing dihydroergotamine as a comparison compound. Particularly, it has been determined on the isolated seminal small bladder of guinea-pig suspended in physiologic solution.
Table I reports the concentrations inhibiting 50% of the spasmogen action of adrenaline (IC50).

[2] = system: lethal effects of adrenaline; assay: adrenolytic activity in vivo in the rat (reduction of lethal effects of adrenaline)
Text: The same activity, in vivo, has been determined in the rat. Table II reports the doses ID50 (in mg/kg) capable of reducing 50% of the lethal effects of adrenaline by intravenous administration (i.v.) and oral administration (os) of the compounds under examination.

[3] = intravenous administration (i.v.), read-out: ID50 (i.v.): dose reducing 50% of the lethal effects of adrenaline
[4] = oral administration (os), read-out: ID50 (os): dose reducing 50% of the lethal effects of adrenaline

Row | Structure (SMILES) | IC50 [1] [µg/mL] | ED50 [2, 3] [mg/kg] | ED50 [2, 4] [mg/kg]
1 | CO[C@]12C[C@@H](COC(=O)c3ccc[nH]3)CN(C)[C@@H]1Cc1cn(C)c3cccc2c13 [1,6-Dimethyl-8β-(2'-pyrroyloxymethyl)-10α-methoxyergoline] | 0.005 (≈ 0.0127 µM) | 0.005 | 0.5
2 | CO[C@]12C[C@@H](COC(=O)c3[nH]c(C)cc3C)CN(C)[C@@H]1Cc1cn(C)c3cccc2c13 [1,6-Dimethyl-8β-(3',5'-dimethyl-2'-pyrroyloxymethyl)-10α-methoxyergoline] | 0.05 (≈ 0.119 µM) | 0.065 | 0.1
3 | CO[C@]12C[C@@H](COC(=O)c3cc[nH]c3)CN(C)[C@@H]1Cc1cn(C)c3cccc2c13 [1,6-Dimethyl-8β-(3'-pyrroyloxymethyl)-10α-methoxyergoline] | 0.005 (≈ 0.0127 µM) | 0.05 | 0.5
4 | CO[C@]12C[C@@H](COC(=O)c3c(C)cc(C)n3C)CN(C)[C@@H]1Cc1cn(C)c3cccc2c13 [1,6-Dimethyl-8β-[1', 3',5'-trimethyl-2'-pyrroyloxymethyl]-10α-methoxyergoline maleate] | 0.01 | 0.25 | 0.2
5 | CO[C@]12C[C@@H](COC(=O)c3c(C)c[nH]c3C)CN(C)[C@@H]1Cc1cn(C)c3cccc2c13 [1,6-Dimethyl-8β-[2', 4'-dimethyl-3'-pyrroyloxymethyl]-10α-methoxyergoline] | 0.07 (≈ 0.166 µM) | 0.1 | 0.7
6 | CO[C@]12C[C@@H](COC(=O)c3cc[nH]c3C)CN(C)[C@@H]1Cc1cn(C)c3cccc2c13 [1,6-Dimethyl-8β-[2'-methyl-3'-pyrroyloxymethyl]-10α-methoxyergoline] | 0.05 (≈ 0.123 µM) | 0.05 | 0.25
7 | CO[C@]12C[C@@H](COC(=O)c3[nH]c(C)c(Br)c3C)CN(C)[C@@H]1Cc1cn(C)c3cccc2c13 [1,6-Dimethyl-8β-[3', 5'-dimethyl-4'-bromo-2'-pyrroyloxymethyl]-10α-methoxyergoline] | 0.1 (≈ 0.2 µM) | > 1 | 0.5
8 | CCOC(=O)c1c(C)[nH]c(C(=O)OC[C@H]2CN(C)[C@@H]3Cc4cn(C)c5cccc(c45)[C@@]3(OC)C2)c1C [1,6-Dimethyl-8β-[3', 5'-dimethyl-4'-carbethoxy-2'-pyrroyloxymethyl]-10α-methoxyergoline] | 1 (≈ 2.03 µM) | > 0.1 | 2.5
9 | COc1c[nH]cc1C(=O)OC[C@H]1CN(C)[C@@H]2Cc3cn(C)c4cccc(c34)[C@@]2(OC)C1 [1,6-Dimethyl-8β-[4'-methoxy-3'-pyrroyloxymethyl]-10α-methoxyergoline] | 0.1 (≈ 0.236 µM) | 0.075 | 0.3
10 | CO[C@]12C[C@@H](COC(=O)c3cccn3C)CN(C)[C@@H]1Cc1cn(C)c3cccc2c13 [1,6-dimethyl-8β-[2'-(N-methyl)-pyrroyloxymethyl]-10α-methoxyergoline] | 0.005 (≈ 0.0123 µM) | 0.025 | 1
11 | CN1C[C@H](C(=O)N[C@]2(C)O[C@@]3(O)[C@@H]4CCCN4C(=O)[C@H](Cc4ccccc4)N3C2=O)C[C@@H]2c3cccc4[nH]cc(c34)C[C@H]21 [Dihydroergotamine, reference compound] | 0.015 (≈ 0.0257 µM) | 0.08 | 15
